Measurements from patent US9034645B2, “Methods of identifying inhibitors of gene silencing in mammalian cells” (Oregon Health & Science University, priority 2008, dated 2015).

What was measured:
Type in all cases: cell-based, mouse
Ptet-HPRT in HPRT3 cells = experiment: Relative HPRT expression in Dox exposed cells treated with TSA (qRT-PCR); conditions: 1 μM Dox 7 days, TSA on day 7 (FIG. 6)
Description: FIG. 6 is a bar graph showing relative HPRT expression after Dox exposed HPRT3 cells were treated with TSA. The HPRT3 cells expressing Ptet-HPRT were treated with 1 μM Dox for 6 days and on day 7 some cells were exposed to both Dox and TSA (at concentrations shown). RNA was collected at the end of the 7th day and assayed for HPRT levels with qRT-PCR.

[1] = test system: silenced Aprt allele in D3, D7, D3S1 cells; experiment: Aprt mRNA expression in cell lines with silenced Aprt (qRT-PCR); conditions: for increase of Aprt mRNA levels as compared to untreated cells: 300 nM TSA; for Aprt expression / mRNA levels after treatment: D7 cell line; for Aprt expression / mRNA levels after treatment / Aprt expression after treatment: overnight 3 μM 5-aza-dC or 300 nM TSA, 24 hours recovery (FIG. 12)
Description: FIG. 12 is a bar graph showing relative Aprt mRNA expression in parental cells with active Aprt expression (H22) and DAP-resistant cell lines with silenced Aprt expression (D7, D3, and D3S1) in untreated cells and cells treated with 3 μM 5-aza-dC or 300 nM TSA. Results are the average of triplicate reactions with error bars indicating the standard deviation.
Total RNA was isolated from cell cultures with the RNeasy® Mini Kit (Qiagen, Valencia, Calif.) according to the manufacturer's instructions. Total RNA samples were converted to cDNA using Quantitect® Reverse Transcription Kit (Qiagen, Valencia, Calif.) with removal of genomic DNA contamination. 100 ng cDNA was used as input in subsequent quantitative-PCR analysis for either Aprt amplification across the exon 2-3 splice site with the sense primer qAprt-F 5′-CTCTTGGCCAGTCACCTGAAG-3′ (SEQ ID NO: 4), the antisense primer qAprt-R 5′-TCTAGACCTGCGATGTAGTCGATCT-3′ (SEQ ID NO: 5) and the TaqMan probe 5′-FAM-CAC GCA CAG CGG C-MGB-3′ (SEQ ID NO: 6) or Gapdh (Mouse TaqMan Endogenous Control, Applied Biosystems) with iQ Supermix (Bio-Rad) and a Bio-Rad iCycler.
Cells were treated overnight (about 16 hours) with media containing 300 nM TSA (Wako USA, Richmond, Va.) to inhibit histone deacetylation, 3 μM 5-aza-dC (Sigma-Aldrich, St. Louis, Mo.) to inhibit DNA methylation, or the combination of 300 nM TSA and 3 μM 5-aza-dC. Cells were allowed to recover 24 hours in DMEM after drug treatment before harvesting for RNA purification.

[2] = test system: BRCA1-HPRT construct (human BRCA1 promoter); experiment: Reversion of hypoxia-induced TG resistant clones containing BRCA1-HPRT; conditions: for TSA-Induced Reversion Frequency: TSA 300 nM; for reversion / reactivation of hypoxia-induced BRCA1-HPRT TG resistant clones: TSA 300 nM (Table 3, FIG. 8), 5-Aza-dC concentration not given
Description: FIG. 8 is a bar graph showing reactivation frequency of BSH8 TG resistant clones treated with 300 nM TSA for 16 hours or in the absence of TSA (untreated).
(§1) To confirm that silencing (as opposed to mutation) was induced by hypoxia exposure, several BRCA1-HRPT TG resistant clones induced by hypoxia were expanded and tested to determine if they could yield revertant cells after exposure to TSA (300 nM) as presented in Example 3 for cells with silenced Ptet-HPRT constructs. […] Consistent with that result, HPRT mRNA was reduced in the TG resistant clones and restored in TSA-induced revertants.

[3] = test system: silenced HPRT allele in H3TG3 cells; experiment: HPRT reversion frequency of TG resistant cells with silenced Ptet-HPRT (HAz selection); conditions: 100 nM TSA and/or 300 nM 5-aza-dC for 24 hours, 24 hour recovery, HAz medium (FIG. 3)
Description: Reversion frequencies were determined for a cell line with a silenced HPRT allele after no treatment (Untreated), treatment with 300 nM 5-aza-2′-deoxycytidine (AzaC) for 24 hours, treatment with 100 nM trichostatin A (TSA) for 24 hours, or a combination of 5-Aza-dC and TSA at the same concentrations for 24 hours. Revertant cells were selected with medium containing hypoxanthine and azaserine.
TSA was therefore used as a probe to determine if histone deacetylation played a significant role in the silencing phenotype. […] For this experiment, 1×10^6 cells were plated in a T-75 flask and treated with 100 nM TSA for 24 hours. After an additional 24 hour recovery time, the cells were re-plated in 100 mm dishes (1×10^5 cells per dish) in HAz medium to select for cells that regained HPRT expression. […] For this experiment, the cells were treated identically to those used for the TSA experiment, except they were exposed to 300 nM 5-aza-dC instead.

Ptet-HPRT in HPRT9 cells = experiment: Inhibition of Dox-induced HPRT silencing (TG resistant clones); conditions: 100 nM TSA or 300 nM 5-Aza-dC for the last 24 hours of 7 days 1 μM Dox; TG selection (FIG. 5)
Description: FIG. 5 is a series of digital images of dishes of TG resistant HPRT9 cells after various treatments. HPRT9 cells with Ptet-HPRT were exposed to 1 μM Dox for 7 days (Dox) to induce HPRT silencing. Some cells were also exposed 100 nM TSA (Dox+TSA) or 300 nM 5-Aza-dC (Dox+AzaC) on day 7 of Dox treatment. Control (Untreated) cells were not exposed to Dox, TSA, or 5-Aza-dC. 1×10^5 cells were plated per dish in TG medium and the dishes were stained after 12 days. The dark circles depict clones of cells that survived TG selection (TG resistant cells).
If so, silencing should be prevented by inhibiting histone deacetylation. To test this, experiments in which silencing is induced by exposure to Dox were repeated (see Example 2), but in this case the cells were exposed to TSA for the last 24 hours of Dox exposure.

BRCA1-HPRT in BSH8 cells = experiment: Inhibition of hypoxia-induced silencing of BRCA1-HPRT (TG resistance frequency); conditions: hypoxia two weeks, TSA 24 hours prior to TG selection (FIG. 9)
Description: FIG. 9 is a bar graph showing TG resistance frequency for BSH8 cells exposed to normoxia or hypoxia for two weeks and then selected under normoxic conditions with TG. An aliquot of the hypoxia exposed cells was treated with TSA for 24 hours (hypoxia+TSA) prior to TG selection.
Two BRCA1-HPRT cell lines obtained with this approach (BSH2 and BSH8) were exposed to hypoxic conditions (growth in an atmosphere of about 95% nitrogen and 5% oxygen) for two weeks and then exposed to 2.5 μg/ml TG under hypoxic conditions for two additional weeks to select for TG resistant cells. […] Thus, the resistance phenotype became independent of hypoxia.
as §1

Ptet-HPRT [4] = experiment: HPRT mRNA by qRT-PCR in Ptet-HPRT cells exposed to Dox; conditions: after removal of Dox from the medium
Source text: The cell lines described in Example 1 were used to determine if gene silencing can be induced by transient reduction of gene expression. […] In other words, Dox can reduce but not eliminate gene expression. HPRT mRNA was restored to the original levels observed in the absence of Dox within 2 days after Dox was removed from the medium.

Ptet-HPRT [5] = experiment: Induction of silencing via repression of Ptet-HPRT by Dox (TG resistance frequency); conditions: 1 μM Dox 7 days, then TG and puromycin selection without Dox
Description: FIG. 2 is a bar graph showing silencing frequency as a function of time of Dox exposure. HPRT 3 cells with Ptet-HPRT were exposed to 1 μM Dox for the times indicated before being released from Dox and selected with 6-thioguanine (TG). TG resistance frequencies are plotted. No TG resistant clones were identified after one or two weeks of growth in medium without Dox. The HPRT 3 cell line was created by inserting the Ptet-HPRT construct and the tet-responsive transcription activator construct into the genome of a mouse cell line termed DIF6.
To determine if gene repression could induce silencing, three cell lines expressing HPRT under control of the Ptet promoter (Ptet-HPRT) were exposed to Dox for 7 days and then selected with TG in the absence of Dox. These cells lines were chosen because 1) each gave few or no spontaneous TG resistant clones and 2) Ptet-HPRT was integrated near the bacterial puromycin (pur) selectable gene, which allowed puromycin selection to be used to prevent deletion of Ptet-HPRT. […] For this experiment, 1×10^6 cells were exposed to 1 μM Dox for 7 days, the Dox was removed from the medium, the cells re-plated in 100 mm dishes at a density of 1×10^5 cells per dish and exposed to TG (5 μg/ml) and puromycin (1.5 μg/ml).

[6] = test system: silenced HPRT allele in H3TG3 cells; experiment: Reactivation of silenced HPRT, mRNA by qRT-PCR; conditions: 5 or 15 μM SFN for 24 hours, RNA 24 hours after exposure; compared with 300 nM 5-aza-dC (FIG. 4)
Description: Relative levels of HPRT mRNA were determined in H3TG3 cells exposed to 300 nM 5-Aza-dC, 5 μM SFN, or 15 μM SFN for 24 hours. RNA was collected after an additional 24 hours and quantitative real time PCR (qRT-PCR) was used to determine mRNA levels, which were set to 1.0 for untreated cells.
RNA levels instead of reactivation frequencies were used as the endpoint for this experiment.

BRCA1-HPRT [7] = experiment: HPRT mRNA in BRCA1-HPRT transfectants exposed to CoCl2; conditions: 50 μM or 100 μM CoCl2 for two weeks (FIG. 10A)
Description: FIG. 10A is a bar graph showing HPRT mRNA levels (normalized to GAPDH) in BRCA1-HPRT transfectants exposed to 50 μM or 100 μM CoCl2 for two weeks.
(§2) BRCA1-HPRT and MLH1-HPRT cell lines as described in Example 5 were exposed to CoCl2 for two weeks, followed by selection of TG resistant clones. […] Expression from the MLH1 promoter was also repressed by exposure to CoCl2.

BRCA1-HPRT [8] = experiment: TG resistance frequency of BRCA1-HPRT transfectants exposed to CoCl2; conditions: 50 μM or 100 μM CoCl2 for two weeks, then TG selection (FIG. 10B)
Description: FIG. 10B is a bar graph showing TG resistance frequency for BRCA1-HPRT transfectants exposed to 50 μM or 100 μM CoCl2 for two weeks, followed by TG selection.
as §2

[9] = test system: MLH1 promoter (MLH1-HPRT); experiment: Expression from the MLH1 promoter in MLH1-HPRT cells exposed to CoCl2; conditions: CoCl2 exposure
Source text: as §2

[10] = test system: reactivated HPRT in H4-derived clones; experiment: Re-silencing frequency of reactivated Ptet-HPRT clones (TG selection); conditions: overnight 300 nM 5-aza-dC before TG selection (FIG. 15)
Description: FIG. 15 is a bar graph showing inactivation frequency of H4-derived clones with silenced and reactivated HPRT expression after overnight treatment with vehicle (Untreated), 300 nM 5-aza-dC (Aza-dC) or 100 nM TSA (TSA) before selecting against HPRT activity with TG. Frequencies represent the fraction of cell colonies surviving after two weeks of TG selection.
A DIF6 derived cell line expressing HPRT under the control of the Ptet system was established as described in Example 1. Gene silencing was induced following repression of HPRT expression in the presence of Dox and spontaneous reactivant cell lines that grew well in AzHx medium were isolated. Re-silencing frequency was measured in the presence of the DNA methylation inhibitor 5-aza-dC or the HDAC inhibitor TSA.

Compound: CC(/C=C/C(=O)NO)=C\[C@@H](C)C(=O)c1ccc(N(C)C)cc1 [TSA, trichostatin A]
- HPRT expression in the presence of Dox (Ptet-HPRT in HPRT3 cells): restored a level of HPRT expression
- increase of Aprt mRNA levels as compared to untreated cells ([1]; D3S1 cell line): 8 fold
- increase of Aprt mRNA levels as compared to untreated cells ([1]; D3 cell line): 1.5 fold
- Aprt expression / mRNA levels after treatment [1]: no affect
- TSA-Induced Reversion Frequency ([2]; TG cell line BSH8TG22): 6.9 × 10^−4
- TSA-Induced Reversion Frequency ([2]; TG cell line BSH8TG23): 1.0 × 10^−4
- reversion / reactivation of hypoxia-induced BRCA1-HPRT TG resistant clones [2]: induced revertant cells
- frequency of revertant cells [3]: increased
- induction of cells with silenced HPRT alleles (Ptet-HPRT in HPRT9 cells): significantly inhibited
- hypoxia-induced silencing of the BRCA1 promoter (BRCA1-HPRT in BSH8 cells): inhibited hypoxia-induced silencing

Compound: C[C@H]1c2cccc(O)c2C(=O)C2=C(O)[C@]3(O)C(=O)C(C(N)=O)=C(O)[C@@H](N(C)C)[C@@H]3[C@@H](O)[C@@H]21 [Dox, doxycycline]
- time to restoration of HPRT mRNA to original levels after Dox was removed (Ptet-HPRT [4]): ≤ 2 days
- Silencing Frequency (Ptet-HPRT [5]; HPRT 1 cell line): 9.4 × 10^−3
- Silencing Frequency (Ptet-HPRT [5]; HPRT 3 cell line): 2.1 × 10^−4
- Silencing Frequency (Ptet-HPRT [5]; HPRT 4 cell line): 1.6 × 10^−4

Compound: C[S+]([O-])CCCCN=C=S (centres unmarked) [SFN, sulforaphane]
- reactivation of silenced HPRT allele (RNA levels) [6]: reactivate the silenced HPRT allele in a dose dependent manner, and at levels greater than that for exposure with 5-aza-dC

Compound: [Cl][Co][Cl] [CoCl2, cobalt chloride]
- BRCA1-HPRT expression (BRCA1-HPRT [7]): repressed in a dose-dependent manner
- TG-resistant clones (BRCA1-HPRT [8]): only arose in BRCA1-HPRT cells exposed to 100 μM CoCl2
- Expression from the MLH1 promoter [9]: repressed

Compound: Nc1ncn([C@H]2C[C@H](O)[C@@H](CO)O2)c(=O)n1 [5-aza-dC, 5-aza-2′-deoxycytidine]
- Aprt expression after treatment ([1]; D3S1 cell line): reactivated expression
- Aprt expression after treatment ([1]; D3 cell line): reactivated expression
- Aprt expression / mRNA levels after treatment [1]: did not alter expression
- reversion / reactivation of hypoxia-induced BRCA1-HPRT TG resistant clones [2]: did not reactivate the silenced clones
- re-silencing frequency [10]: essentially unchanged
- frequency of revertant cells [3]: induced revertant cells
- induction of cells with silenced HPRT alleles (Ptet-HPRT in HPRT9 cells): did not inhibit
- hypoxia-induced silencing of the BRCA1 promoter (BRCA1-HPRT in BSH8 cells): did not inhibit the induction of silencing
